# From PubChem BioAssay (NCI)
#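 48-hour exposure; five concentrations; linearly interpolated endpoints. TGI: total growth inhibition.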
# Assays:
# Experiment in all cases: growth of human tumour cells (NCI), 48 h
# A549 NSCLC = test system: A549 NSCLC
# MDA-N = test system: MDA-N
# SR leukemia = test system: SR leukemia
# U251 CNS = test system: U251 CNS
# HL-60(TB) leukemia = test system: HL-60(TB) leukemia
# MCF7 breast = test system: MCF7 breast
# OVCAR-5 ovarian = test system: OVCAR-5 ovarian
# MDA-MB-435 = test system: MDA-MB-435
# SK-MEL-28 melanoma = test system: SK-MEL-28 melanoma
# SNB-75 CNS = test system: SNB-75 CNS
# HOP-62 NSCLC = test system: HOP-62 NSCLC
# NCI/ADR-RES ovarian = test system: NCI/ADR-RES ovarian
# HS 578T breast = test system: HS 578T breast
# EKVX NSCLC = test system: EKVX NSCLC
# MALME-3M melanoma = test system: MALME-3M melanoma
# T-47D breast = test system: T-47D breast
# CAKI-1 renal = test system: CAKI-1 renal
# CCRF-CEM leukemia = test system: CCRF-CEM leukemia
# TK-10 renal = test system: TK-10 renal
# IGROV1 ovarian = test system: IGROV1 ovarian
SMILES,TGI (A549 NSCLC) [µM],TGI (MDA-N) [µM],TGI (SR leukemia) [µM],TGI (U251 CNS) [µM],TGI (HL-60(TB) leukemia) [µM],TGI (MCF7 breast) [µM],TGI (OVCAR-5 ovarian) [µM],TGI (MDA-MB-435) [µM],TGI (SK-MEL-28 melanoma) [µM],TGI (SNB-75 CNS) [µM],TGI (HOP-62 NSCLC) [µM],TGI (NCI/ADR-RES ovarian) [µM],TGI (HS 578T breast) [µM],TGI (EKVX NSCLC) [µM],TGI (MALME-3M melanoma) [µM],TGI (T-47D breast) [µM],TGI (CAKI-1 renal) [µM],TGI (CCRF-CEM leukemia) [µM],TGI (TK-10 renal) [µM],TGI (IGROV1 ovarian) [µM]
Oc1ccc2ccccc2c1/C=C/c1ccc2c(Br)cc(Br)c(O)c2n1,20.5,26.7,> 40.4,21.6,12.3,14.5,21.7,36.2,31.8,30.8,34.5,12.9,49.4,15.3,32,35.4,26.7,15.6,23.2,32.5
O=C(O)c1nc(-c2ccccc2)ncc1-c1nnnn1-c1ccccc1,> 100,> 100,> 100,> 100,> 100,> 100,> 100,> 100,> 100,> 100,> 100,> 100,> 100,> 100,> 100,> 100,> 100,> 100,> 100,> 100
CCc1nc(N)nc(N)c1-c1ccc2nn(-c3ccccc3)[n+]([O-])c2c1,27.8,18.8,34.1,22.1,27.4,20.8,44.3,19.5,25.1,53.1,25.3,38.8,52.3,35.1,22.7,31.7,18.2,36.8,55.6,23.2
COc1ccc2nc3ccc(OC)cc3c(S(=O)CCCl)c2c1 (stereo not given),48,7.58,> 22.7,> 52.2,6.86,> 21.4,34.5,17.1,12.4,33.1,36.8,36.8,6.02,25.6,3.57,5.62,6.9,> 23.8,8.26,6.87
